Results: BindingDB's records for doi:10.7270/Q2CV4GM1 (D3R/Abbott, 2015)
Several values for one entry are separate records, joined by “and”; a condition that tells them apart may be missing. Equal values may be shown once.

biological target: T1, Tyrosine-protein kinase SYK [355-635] (Homo sapiens, UniProt P43405); test: SYK assay_HTRF
T1 construct: 355-635

SMILES | IC50
CCN(c1nc(Nc2cccc(O)c2)ncc1F)c1cccc2[nH]ncc12 [GTC000282A] | 7.94 nM
CCN(c1nc(Nc2ccc3c(c2)[nH]c(=O)n3C)ncc1F)c1cccc2[nH]ncc12 [GTC000283A] | 8.13 nM
NS(=O)(=O)c1cccc(Nc2ncc(F)c(N(CCCO)c3cccc4[nH]ncc34)n2)c1 [GTC000284A] | 8.79 nM
COCCN(c1ccnc(Nc2ccc3c(c2)S(=O)(=O)NC3)n1)c1cccc2[nH]ncc12 [GTC000285A] | 8.34 nM
CCN(c1nc(Nc2ccc3c(c2)S(=O)(=O)N(C)C3)ncc1F)c1cccc2[nH]ncc12 [GTC000289A] | 13.7 nM and 5.32 nM and 16.3 nM
CCN(c1nc(Nc2ccc3[nH]c(=O)[nH]c3c2)ncc1Cl)c1cccc2[nH]ncc12 [GTC000290A] | 6.7 nM and 12.6 nM
CCN(CC)CCCN(c1ccnc(Nc2ccc3c(c2)S(=O)(=O)NC3)n1)c1cccc2[nH]ncc12 [GTC000291A] | 11.5 nM and 7.21 nM
O=c1[nH]c2ccc(Nc3nccc(N(CC4CCNCC4)c4cccc5[nH]ncc45)n3)cc2[nH]1 [GTC000292A] | 10.8 nM
OCCCN(c1nc(Nc2ccc3nn[nH]c3c2)ncc1F)c1cccc2[nH]ncc12 [GTC000295A] | 9.53 nM
CCN(c1nc(Nc2cccc(S(C)(=O)=O)c2)ncc1F)c1cccc2[nH]ncc12 [GTC000300A] | 11.3 nM
COCCCN(c1nc(Nc2cccc(S(N)(=O)=O)c2)ncc1F)c1cccc2[nH]ncc12 [GTC000301A] | 12.1 nM
CCN(c1nc(Nc2ccc3c(c2)C(C)(C)C(=O)N3)ncc1F)c1cccc2[nH]ncc12 [GTC000302A] | 13.2 nM
O=S1(=O)NCc2ccc(Nc3nccc(N(C[C@@H](O)CO)c4cccc5[nH]ncc45)n3)cc21 [GTC000304A] | 13.6 nM
CCN(c1nc(Nc2ccc3c(cnn3C(C)C)c2)ncc1F)c1cccc2[nH]ncc12 [GTC000305A] | 29.2 nM and 7.13 nM
CCN(c1nc(Nc2cccc(-c3cnco3)c2)ncc1F)c1cccc2[nH]ncc12 [GTC000306A] | 9.02 nM and 16.6 nM and 26.1 nM
CCN(c1nc(Nc2ccc3c(c2)S(=O)(=O)N(CC)C3)ncc1F)c1cccc2[nH]ncc12 [GTC000307A] | 16.2 nM and 14 nM
CCNC(=O)c1ccc(Nc2ncc(F)c(N(CC)c3cccc4[nH]ncc34)n2)cc1 [GTC000312A] | 16.1 nM

Continued, values first:

IC50 | SMILES
7.19 nM | NC(=O)c1cccc(Nc2nccc(N(CCO)c3cccc4[nH]ncc34)n2)c1 [GTC000281A]
7.64 nM | Cc1ncoc1-c1cccc(Nc2nccc(N(CCCCO)c3cccc4[nH]ncc34)n2)c1 [GTC000286A]
8.05 nM | Cn1ncc2cc(Nc3nccc(N(CCCCO)c4cccc5[nH]ncc45)n3)ccc21 [GTC000287A]
19.8 nM and 5.42 nM | CS(=O)(=O)NCCCCN(c1ccnc(Nc2ccc3[nH]c(=O)[nH]c3c2)n1)c1cccc2[nH]ncc12 [GTC000288A]
9.29 nM | NCCCN(c1ccnc(Nc2ccc3[nH]c(=O)[nH]c3c2)n1)c1cccc2[nH]ncc12 [GTC000293A]
10.2 nM | COCCCN(c1nc(Nc2ccc3c(cnn3C)c2)ncc1F)c1cccc2[nH]ncc12 [GTC000294A]
5.04 nM and 25.1 nM and 21.6 nM | COC(=O)CCCCN(c1ccnc(Nc2ccc3c(c2)S(=O)(=O)NC3)n1)c1cccc2[nH]ncc12 [GTC000296A]
6.89 nM and 13.9 nM and 13.1 nM | COC(=O)CCCN(c1ccnc(Nc2ccc3c(c2)S(=O)(=O)NC3)n1)c1cccc2[nH]ncc12 [GTC000297A]
10.7 nM and 15.6 nM and 15.1 nM | COCCCN(c1nc(Nc2ccc3cnn(C)c3c2)ncc1F)c1cccc2[nH]ncc12 [GTC000298A]
13.9 nM | CCN(c1nc(Nc2ccc3cnn(CCCCO)c3c2)ncc1F)c1cccc2[nH]ncc12 [GTC000299A]
11.5 nM | CN(c1nc(Nc2ccc3c(cnn3C)c2)ncc1F)c1cccc2[nH]ncc12 [GTC000303A]
17.7 nM and 15.4 nM | CS(=O)(=O)NCCCCCN(c1ccnc(Nc2ccc3[nH]c(=O)[nH]c3c2)n1)c1cccc2[nH]ncc12 [GTC000308A]
17.7 nM | NC(=O)c1cccc(Nc2nccc(N(CCCO)c3cccc4[nH]ncc34)n2)c1 [GTC000309A]
16.4 nM | CC(=O)NCCCCCN(c1ccnc(Nc2ccc3[nH]c(=O)[nH]c3c2)n1)c1cccc2[nH]ncc12 [GTC000310A]
15.3 nM | CS(=O)(=O)c1cccc(Nc2nccc(N(CCO)c3cccc4[nH]ncc34)n2)c1 [GTC000311A]
